Source: US20080176923A1, “Proline Derivatives Used as Pharmaceutical Active Ingredients for the Treatment of Tumors” (priority 2003, published 2008)
Converted amounts (≈) assume the structure as drawn. Read-outs that look alike come from different tables or passages of the source.

Legend:
[1] = system: T47D breast cancer cell line; experiment: tumor cell proliferation test, T47D; type: cell-based; conditions: for inhibition at 400 µg/mL / IC50: Homo sapiens
Procedure: (§1) The compounds of the invention were tested using the pancreas tumor cell lines MIYPaCa2 and BxPC3, the breast cancer cell lines MDA-MB-435 and BT20, as well as the colon cancer cell lines Colo205 and HT29. The cells were placed in culture medium (RPMI-1640 with 10% fetal calf serum and 4 mM glutamine) in 96-well microtiter plates to make 10,000 cells per well. The inventive components to be tested were diluted in microtiter plates according to the well-known procedure and incubated for 4 days under cell culture conditions (37° C., 5% CO2).
(§2) Following incubation, the proliferation was tested using a tetrazolium-based EZ4U kit from Biomedica (Vienna, Austria). The optical density (OD) of each well was determined by means of an ELISA Reader, and the control medium obtained was set to 100% (OD490 nm=0.5 to 1.5). The values in Table 1 are given in %, showing the inhibition of cellular proliferation, the concentration being 400 μg/ml (higher value) and 200 μg/ml (lower value).
(§3) A proliferation test—as described above—with an initial dilution of 400 μg/ml was carried out, either alone or in combination with 400, 200 or 100 μg of CHP. The cell lines used are illustrated in Table 3. […] Frequently, the proliferation is increased, or the inhibition achieved with specific substances is lower when using combined agents. The effect of CHP alone is shown on the left in the table, below each specified cell line, for the highest concentration of CHP (400 μg/ml).
(§4) Furthermore, (R)-(+)-α,α-diphenyl-2-pyrrolidinemethanol and (S)-(−)-α,α-diphenyl-2-pyrrolidinemethanol were tested. […] The results are given as IC50 (μg/ml).

[2] = system: BT20 breast cancer cell line; experiment: tumor cell proliferation test (EZ4U tetrazolium), BT20; type: cell-based; conditions: Homo sapiens, BT-20, 96 h, 4 days, read-out: inhibition of cellular proliferation; for inhibition at 200 µg/mL: BT20, 200 μg/ml; for inhibition at 400 µg/mL: BT20, 400 μg/ml
Procedure: as §1, §2

[3] = system: BxPC3 pancreas tumor cell line; experiment: tumor cell proliferation test (EZ4U tetrazolium), BxPC3; type: cell-based; conditions: for inhibition at 200 µg/mL / inhibition at 400 µg/mL / IC50: Homo sapiens; for inhibition at 200 µg/mL / inhibition at 400 µg/mL: BXPC-3, 96 h, read-out: inhibition of cellular proliferation
Procedure: as §1, §2
(§5) In further tests, substances were dissolved in water, and their effect on the colon adenocarcinoma cell line Colo205 and pancreas adenocarcinoma cell line BxPC3 as targets was tested. The results obtained, in IC50 concentrations in μg/ml, are illustrated in Table 2.
as §4

[4] = system: HT29 colon cancer cell line; experiment: tumor cell proliferation test (EZ4U tetrazolium), HT29; type: cell-based; conditions: Homo sapiens, HT-29, 96 h, 4 days, read-out: inhibition of cellular proliferation; for inhibition at 200 µg/mL: HT29, 200 μg/ml; for inhibition at 400 µg/mL: HT29, 400 μg/ml
Procedure: as §1, §2

[5] = system: all 6 cell lines (MIA-PaCa2, Colo205, BxPC3, MDA-MB435, BT20, HT29); experiment: tumor cell proliferation test, mean value for all 6 cell lines; type: cell-based; conditions: read-out: inhibition, mean value±SEM for all 6 cell lines
Procedure: as §1, §2

[6] = system: MIA-PaCa2 pancreas tumor cell line; experiment: tumor cell proliferation test (EZ4U tetrazolium), MIA-PaCa2; type: cell-based; conditions: Homo sapiens; for inhibition at 200 µg/mL / inhibition at 400 µg/mL: MIA PaCa-2, 96 h, read-out: inhibition of cellular proliferation; for IC50: MIA PaCa-2
Procedure: as §1, §2, §4

[7] = system: MDA-MB435 breast cancer cell line; experiment: tumor cell proliferation test (EZ4U tetrazolium), MDA-MB435; type: cell-based; conditions: Homo sapiens, MDA-MB-435, 96 h, 4 days, read-out: inhibition of cellular proliferation; for inhibition at 200 µg/mL: MDA-MB435, 200 μg/ml; for inhibition at 400 µg/mL: MDA-MB435, 400 μg/ml
Procedure: as §1, §2

[8] = repeated oral administration to rats over 28 days, LC/MS of serum and urine; type: in vivo; conditions: repeated oral administration over 28 days
Procedure: cis-4-Hydroxy-L-proline was repeatedly administered orally to rats over a period of 28 days. cis-4-Hydroxy-L-proline was analyzed in serum and urine samples using the LC/MS technique.

[9] = system: Colo205 colon cancer cell line; experiment: tumor cell proliferation test (EZ4U tetrazolium), Colo205; type: cell-based; conditions: for inhibition at 200 µg/mL / inhibition at 400 µg/mL / IC50: Homo sapiens
Procedure: as §1, §2, §5, §3, §4

[10] = system: SW620 colon cancer cell line; experiment: tumor cell proliferation test, SW620; type: cell-based; conditions: for inhibition at 400 µg/mL: Homo sapiens
Procedure: as §1, §2, §3

Pana -1 pancreas cancer = experiment: tumor cell proliferation test, Pana -1; type: cell-based
Procedure: as §1, §2, §4

[11] = COLO 205, 96 h, read-out: inhibition of cellular proliferation
[12] = BXPC-3, substances dissolved in water, read-out: IC50 BxPC3
[13] = COLO 205, substances dissolved in water, read-out: IC50 Colo205
[14] = COLO 205, 96 h, Colo205, 200 μg/ml, 4 days, read-out: inhibition of cellular proliferation
[15] = COLO 205, 96 h, Colo205, 400 μg/ml, 4 days, read-out: inhibition of cellular proliferation

Molecule | inhibition at 200 µg/mL [2] | inhibition at 400 µg/mL [2] | inhibition at 200 µg/mL [4] | inhibition at 400 µg/mL [4] | inhibition at 200 µg/mL [7] | inhibition at 400 µg/mL [7] | IC50 [3, 12] | IC50 [9, 13] | inhibition at 200 µg/mL ([3]; BxPC3, 200 μg/ml, 4 days) | inhibition at 400 µg/mL ([3]; BxPC3, 400 μg/ml, 4 days) | inhibition at 400 µg/mL ([5]; 400 μg/ml) | inhibition at 200 µg/mL ([6]; MIA-PaCa2, 200 μg/ml, 4 days) | inhibition at 400 µg/mL ([6]; MIA-PaCa2, 400 μg/ml, 4 days) | inhibition at 200 µg/mL [9, 14] | inhibition at 400 µg/mL [9, 15] | other results
O=C(O)[C@@H]1C[C@H](O)CN1 [CHP, cis-4-hydroxy-L-proline, reference compound] | 6.5% | 10.6% | 1.7% | 15.7% | 19.9% | 39.2% | – | – | – | – | – | – | – | – | – | inhibition at 400 µg/mL ([1]; read-out: effect of CHP alone (% inhibition of proliferation, minus sign)): 17.4%; inhibition at 200 µg/mL [3]: 27.8%; inhibition at 400 µg/mL [3]: 44.5%; IC50 ([3]; BXPC-3, read-out: IC50 BxPC3): 400 µg/mL (≈ 3050 µM); inhibition at 400 µg/mL [5]: 40 ± 10.1%; inhibition at 200 µg/mL [6]: 34.5%; inhibition at 400 µg/mL [6]: 51.3%; level of cis-4-hydroxy-L-proline in serum or urine [8]: rapidly dropped; isomers and metabolites in the investigated samples (biotransformation) ([8]; serum and urine): detection of isomers and metabolites; inhibition at 200 µg/mL [9, 11]: 60%; inhibition at 400 µg/mL [9, 11]: 78.2%; IC50 ([9]; COLO 205, read-out: IC50 Colo205): 90 µg/mL; inhibition at 400 µg/mL ([9]; COLO 205, read-out: effect of CHP alone (% inhibition of proliferation, minus sign)): 46%; inhibition at 400 µg/mL ([10]; SW-620, CHP 400 μg/ml alone, read-out: effect of CHP alone (% inhibition of proliferation, minus sign)): 14%
CCOC(=O)C1CC(O)CN1 [Substance A-1, cis-hydroxy-L-proline ethyl ester] | – | – | – | – | – | – | 5 µg/mL (≈ 31.4 µM) | 50 µg/mL | – | – | – | – | – | – | – | –
CCOC(=O)C1CC(O)C[N+]1(C)C (stereo not drawn) [Substance A1-01, 4-hydroxy-1,1-dimethylproline ethyl ester iodide] | – | – | – | – | – | – | 70 µg/mL | > 400 µg/mL | – | – | – | – | – | – | – | –
CC(C)COC(=O)C1CC(O)CN1 [Substance A2, cis-hydroxy-L-proline isobutyl ester] | – | – | – | – | – | – | 15 µg/mL (≈ 80.1 µM) | 18 µg/mL | – | – | – | – | – | – | – | melting point: 139 °C
CC(C)COC(=O)[C@@H]1CC(O)CN1C (stereo partly drawn) [Substance A2.21, 4-hydroxy-1-methylproline isobutyl ester] | 5.2% | 3.9% | 4.1% | 1.3% | 4.5% | 3.1% | – | – | 18.2% | 4.9% | < 8% | 4.5% | 23.9% | 14.1% | 10% | –
CC(C)COC(=O)[C@@H]1CC(OC(=O)Nc2ccccc2)CN1C (stereo partly drawn) [Substance A2.23, 1-methyl-4-phenylaminocarbonyloxyproline isobutyl ester] | 0% | 0% | -5% | -5.3% | 5.5% | 8.6% | – | – | 15.4% | 2.1% | < 8% | 14.2% | 0.3% | 19.2% | 14.1% | –
OC(c1ccccc1)(c1ccccc1)[C@@H]1CCCN1 [Substance 231.02, (S)-(−)-α,α-diphenyl-2-pyrrolidinemethanol] | – | – | – | – | – | – | – | – | – | – | – | – | – | – | – | IC50 [1]: 190 µg/mL; IC50 ([3]; BXPC-3): 50 µg/mL (≈ 197 µM); IC50 (Pana -1 pancreas cancer): 55 µg/mL (≈ 217 µM); IC50 [6]: 50 µg/mL (≈ 197 µM); IC50 ([9]; COLO 205): 45 µg/mL
CCOC(=O)[C@@H]1CC(OC(=O)Nc2ccccc2)CN1C (stereo partly drawn) [Substance A1.23, 1-methyl-4-phenylaminocarbonyloxyproline ethyl ester] | 4.4% | 1.3% | 8.5% | 1.9% | 8.7% | 4.5% | – | – | 17.8% | 0% | < 8% | 16% | 8.3% | 17.2% | 7.3% | –
4-hydroxy-1,1-dimethylproline isobutyl ester iodide [Substance A2-01] | – | – | – | – | – | – | – | – | – | – | – | – | – | – | – | IC50 BxPC3 ([3]; substances dissolved in water): 50 µg/mL; IC50 Colo205 ([9]; substances dissolved in water): >400 µg/mL
CN1CC(O)C[C@H]1C(=O)O (stereo partly drawn) [Substance A0.21, 4-hydroxy-1-methylproline] | 18.3% | 14.9% | 4.8% | 4.7% | 26.9% | 23.2% | – | – | 21.9% | 16.2% | 16.3 ± 2.7% | 21.1% | 22.8% | 21.1% | 16.3% | % inhibition of proliferation (minus signs) ([1]; A0.21 100 alone (Con)): −1.8%; % inhibition of proliferation (minus signs) ([1]; A0.21 200 alone (Con)): −1.2%; inhibition at 400 µg/mL ([1]; A0.21 400 μg/ml alone (Con), read-out: % inhibition of proliferation (minus signs)): 0.4%; % inhibition of proliferation (minus signs) ([9]; Colo205, A0.21 100 alone (Con)): −3.5%; % inhibition of proliferation (minus signs) ([9]; Colo205, A0.21 200 alone (Con)): −4.0%; inhibition at 400 µg/mL ([9]; COLO 205, Colo205, A0.21 400 μg/ml alone (Con), read-out: % inhibition of proliferation (minus signs)): 8.2%; % inhibition of proliferation (minus signs) ([10]; A0.21 100 alone (Con)): −5.8%; % inhibition of proliferation (minus signs) ([10]; A0.21 200 alone (Con)): −6.3%; inhibition at 400 µg/mL ([10]; SW-620, A0.21 400 μg/ml alone (Con), read-out: % inhibition of proliferation (minus signs)): 5.2%
OC(c1ccccc1)(c1ccccc1)[C@H]1CCCN1 [Substance 231.01, (R)-(+)-α,α-diphenyl-2-pyrrolidinemethanol] | – | – | – | – | – | – | – | – | – | – | – | – | – | – | – | IC50 [1]: 130 µg/mL; IC50 ([3]; BXPC-3): 60 µg/mL (≈ 237 µM); IC50 (Pana -1 pancreas cancer): 80 µg/mL (≈ 316 µM); IC50 [6]: 50 µg/mL (≈ 197 µM); IC50 ([9]; COLO 205): 45 µg/mL
CC(C)COC(=O)[C@@H]1CC(O)CN1C1CCCCC1 (stereo partly drawn) [Substance A2-03, 4-hydroxy-1-cyclohexylproline isobutyl ester] | – | – | – | – | – | – | 50 µg/mL (≈ 186 µM) | 50 µg/mL | – | – | – | – | – | – | – | –
Br.CC(C)COC(=O)[C@@H]1CC(O)CN1C(c1ccccc1)c1ccccc1 (stereo partly drawn) [Substance A2-04, 4-hydroxy-1-diphenylmethylproline isobutyl ester hydrobromide] | – | – | – | – | – | – | 12 µg/mL | 6.2 µg/mL | – | – | – | – | – | – | – | –
CCOC(=O)[C@@H]1CC(O)CN1C (stereo partly drawn) [Substance A1.21, 4-hydroxy-1-methylproline ethyl ester] | 22.2% | 80.1% | 7.3% | 0.5% | 15.6% | 53.5% | – | – | 25% | 13.4% | 36.5 ± 11.4% | 7.4% | 38.8% | 23.7% | 32.7% | –
